Test results published in paper PMC9950745, “A novel promising laccase from the psychrotolerant and halotolerant Antarctic marine Halomonas sp. M68 strain” (Frontiers in Microbiology, 2023).

Tested on: T1, Ant laccase
T1 construct: gene copA
Assay: spectrophotometric oxidation assay at […] nm, Michaelis-Menten fit
Type: biochemical
Details: 50 mM sodium acetate, pH 5.0, 20°C; partially purified preparation SNP30

**Q.** Which Km does the source give for CCn1c(=NN=c2sc3cc(S(=O)(=O)O)ccc3n2CC)sc2cc(S(=O)(=O)O)ccc21 [ABTS, 2,2′-azino-bis (3-ethylbenzothiazoline-6-sulfonic acid)] here?
**A.** Its Km is roughly 2000 µM.
